Results from patent US20210009557A1, “ACYCLIC CXCR4 INHIBITORS AND USES THEREOF” (X4 Pharmaceuticals, Inc., priority 2017, published 2021).

System: Caco-2 cells
Assay: in vitro
Settings: Caco-2

Lucifer Yellow [reference compound]
permeability for Lucifer Yellow: low permeability
